The results in this text go back to patent EP0805678B1, “SURFACE-MODIFIED NANOPARTICLES AND METHOD OF MAKING AND USING SAME” (THE BOARD OF REGENTS acting for and on behalf of THE …, priority 1995, dated 1996).

The test system of series [1] is coronary artery. The experiment in a line: in vivo retention of nanoparticles in porcine coronary artery. Details: species or system pigs. The conditions noted are these: after local delivery of U86-loaded nanoparticles; about 45 µg nanoparticles per 1 cm LAD. How it is done:
In addition to the in vivo studies with rats, the nanoparticles were tested on pigs, weighing between about 30-40 lbs. In each subject pig, the elastic lamina of the coronary artery was ruptured by over inflation of a balloon tip catheter. A nanoparticle suspension (2.5 to 10 mg/ml in normal saline) was infused at the location of the injury by a Wolinksy (28 or 96 hole) or D-3 balloon catheter (Sci-Med, Minneapolis, MN) at 1-3 atmosphere pressure over 1 to 5 minutes. After 2-6 hours, the coronary arteries were harvested and quantitated for drug levels to calculate nanoparticle retention. U86 loaded-PLGA nanoparticles (15% w/w) with 5% DMAB surface modification and a particle size between 100-149 nm were suspended in normal saline at a concentration 15 or 30 mg/ml. The nanoparticles (NP) were administered to pigs which were sacrificed at 30 minutes or after one hour.

Series [2] deals with ADP-induced platelet aggregation. As to the kind of experiment: in vitro platelet aggregometry. In kind it is cell-based, pig. As to conditions: platelet rich plasma at 37° C, effects monitored after 1 minute. How it is done:
Using standard in vitro platelet aggregometry techniques, a dose-response curve was first developed with free ciprostene to determined its inhibitory potency against standard ADP-induced platelet aggregation. […] Concentrations of PLGA nanoparticles ranging from 0.3 to 30 µg/ml (actual ciprostene concentration of 0.06 to 6 µg/ml due to 20% drug loading) were added to platelet rich plasma samples heated to 37° C. The platelet inhibitory effects were monitored after 1 minute. The IC50 for the polymer-incorporated ciprostene was 0.59 µg/ml. Non-drug containing PLGA nanoparticles, as controls, had no obvious effects on the aggregation profile of pig platelets to the agonist ADP.

For `O=c1cc(N2CCOCC2)oc2c(OCc3cccnc3)cccc12` [Sample U86, U-86983], the “net U86 in 1 cm of treated artery” value in series [1] was “about 7 µg”.

With `CCCCC[C@H](O)/C=C/[C@H]1[C@H](O)C[C@]2(C)C/C(=C\CCCC(=O)O)C[C@H]12` [free ciprostene, ciprostene], in series [2], the IC50 result is given as “roughly 0.28 µg/ml”.
